Row | Structure (SMILES) | melting point [°C]
1 | CC(=O)NCCn1ccc2c1-c1c(Cl)cccc1CC2 | 146 to 147
2 | CCCN1CCC[C@@H]2c3cccc(O)c3OC[C@H]21 (relative stereo) | 111 to 114
3 | CCCSc1sc(C(=O)OCC)c2c1C(=O)C(NC(=O)CC)CC2 (stereo not drawn) | 191 to 192
4 | CCOc1nc2c(cnn2CC)nc1C#N | 73 to 74
5 | COc1cccc(-c2cc(N)c3cc(OC)ccc3n2)c1 | 148 to 149
6 | Cc1nc(N2CCCC2)nc(C)c1-c1cccc2c1OC[C@H]2Nc1ccc2c(c1)OC[C@H]2CC(=O)O | 169
7 | CN(C)c1nc(C(=O)NCCO[N+](=O)[O-])cs1 | 94 to 95
8 | C=Cn1nnn(-c2cc(OC)c(Cl)cc2Cl)c1=O | 142 to 143
9 | COCC(=O)OC(=C1C(=O)N(C(N)=O)c2cc(Cl)c(F)cc21)c1cccs1 | 199 to 200
10 | CC(C)=CCN(CC=C(C)C)Cc1noc(-c2ncn3c2[C@@H]2CCCN2C(=O)c2c(Cl)cccc2-3)n1 | 137 to 140
11 | COc1cc(-c2nc(C)nn2C)cc2oc(=O)c(C)c(C)c12 | 180
12 | CC(CCCc1ccc(F)cc1)c1cc(O)c2c(c1)OC(C)(C)c1ccncc1-2 (stereo not drawn) | 72 to 74
13 | Cc1nc2c([N+](=O)[O-])cc(Br)cc2n1C | 193 to 195
14 | COC(=O)c1cc(-c2ccc(OC)c(OC)c2)nn(CC(C)C)c1=O | 104 to 106
15 | CNc1nc(Cl)c(Cl)c(N2CCN(C(=O)OC(C)(C)C)CC2)n1 | 129 to 131
16 | CC(C)(C)NS(=O)(=O)c1csc2ccccc12 | 146 to 148
17 | CC(=O)OC1CSC(Oc2cccc(-c3ccncc3)c2)C(OC(C)=O)C1OC(C)=O (stereo not drawn) | 112
18 | COc1ccc(Cl)cc1C1C(=O)Nc2cc(C(F)(F)F)ccc21 (stereo not drawn) | 210 to 213
19 | N#Cc1cccc(-c2cc(-c3ccc(C#N)cc3O[N+](=O)[O-])on2)c1 | 198 to 199
20 | CC1CN(c2ccc([N+](=O)[O-])nc2)C1 | 141 to 143
21 | CCOC(=O)c1c(C)c(C(=O)CC#N)n(C)c1C | 105
22 | CC(C)Sc1sc(-c2nnn[nH]2)c2c1C(=O)CC(C)(C)C2 | 228 to 230
23 | COCOc1c(-c2cncc3cccc([N+](=O)[O-])c23)ccc(OC)c1OC | 138 to 140
24 | Cn1cc(C(=O)C(=O)Oc2c(F)c(F)c(F)c(F)c2F)c2ccccc21 | 168 to 169

Row | Structure (SMILES) | melting point [°C]
25 | CC(=O)c1cc2nc(S(=O)Cc3nccc4c3OCO4)[nH]c2cc1C (stereo not drawn) | 178 to 180
26 | O=C(O)CS(=O)CCCCCNS(=O)(=O)c1ccc(Cl)cc1 (stereo not drawn) | 91 to 92
27 | CCN(CC)C(=O)C=Cc1ccccc1 | 65
28 | COC(=O)c1cc([N+](=O)[O-])ccc1-c1c(OC)cccc1OC | 157
29 | CC(=O)Nc1cccc(C)c1C(=O)O | 189 to 190
30 | COc1ccc2c(c1)C(=O)C(=Cc1nccs1)CO2 | 130 to 132
31 | CCCCN(CCCc1coc2c(OC)cccc12)C1COc2c(F)ccc(C(N)=O)c2C1 (stereo not drawn) | 110 to 117
32 | CCn1c(Cl)c(C=O)c(=O)n(CC)c1=NO | 115 to 116
33 | CC1CCN2C(=N1)C(=O)c1cc(S(=O)(=O)N3CCCC3)ccc12 (stereo not drawn) | 152 to 153
34 | Cc1cc(CC(=O)O)ccc1[N+](=O)[O-] | 95
35 | CCOC(=O)C1(C(=O)OCC)CCNC(=O)C1CCO (stereo not drawn) | 120 to 121
36 | CN1C(=O)C(NC(=O)NC(C)(C)C)N=C(c2ccccc2)c2ccccc21 (stereo not drawn) | 281 to 282
37 | Cc1ccc2c(c1)c(=O)n1nc(C(=O)O)cc1n2C | 269
38 | CSc1cc(C)nc(SC)c1NC(=O)CCCCCCCSc1nc2cccc(C(F)(F)F)c2o1 | 115 to 116
39 | OC1(Cn2cncn2)CCCCC12OC2c1ccc(Cl)cc1 (stereo not drawn) | 150
40 | CC(C)(C)c1ccc(C(=O)Nc2cn3nc(NCCO)ccc3n2)cc1 | 231 to 233
41 | COc1cc(OC)c2c(=O)[nH]c(-c3cccc(N4CCN(C(C)CO)CC4)n3)nc2c1 (stereo not drawn) | 202 to 204
42 | COCOc1ccc(CO)c2cccc(C)c12 | 91 to 93
43 | CCCC1=C(C(=O)OCC)C(c2cc(F)ccc2F)c2c[nH]nc2N1 (stereo not drawn) | 168 to 169
44 | CCOc1ccc(C(C)=O)cc1S(=O)(=O)NC(=O)Nc1nc(OC)cc(OC)n1 | 192 to 193
45 | O=C(O)C1CSC(C2CCCCC2)=NN1C(=O)CCS (stereo not drawn) | 95 to 97
46 | Cc1cc(Oc2ccc3nc(COc4ccc(CC5SC(=O)NC5=O)cc4)n(C)c3c2)cc(C)c1N (stereo not drawn) | 209 to 211
47 | CCc1noc(C)c1-c1[nH]c2ccccc2c1CN(C)C | 88 to 90
48 | CC(=CC(=O)O)Sc1c[nH]c2ccccc12 | 201 to 202

Other lines, results leading:

Row | melting point [°C] | Structure (SMILES)
49 | 197 to 198 | Cc1oc(-c2ccccc2)nc1COc1ccc(Cn2cc(CCC(=O)O)c(O)n2)cc1
50 | 150 | CC(=O)O[C@@H]1CN2C(=O)N(c3cc(Cl)cc(Cl)c3)C(=O)[C@]2(Cc2ccc(Br)cc2)C1
51 | 124 to 126 | Cc1nc(N2CCCC(CCc3ccccc3)C2=O)sc1C(=O)NCc1ccccc1 (stereo not drawn)
52 | 235 to 237 | COC(=O)c1ccc(Cn2c(=O)c(-c3c(Cl)cccc3Cl)cc3cnc(N)nc32)cc1
53 | 124 | CCCCCCCc1cn(CC(O)c2ccccc2)c(=N)s1 (stereo not drawn)
54 | 124 to 126 | CC(c1ccc(CCNC(=O)c2ccc(Br)cc2)cc1)N1CCCC1 (stereo not drawn)
55 | 258 to 260 | O=C1CCC(N2Cc3c(OCC4COc5ccccc5C4)cccc3C2=O)C(=O)N1 (stereo not drawn)
56 | 196 to 198 | Cc1c(O)ccc2c(=O)c(-c3ccccc3O)coc12
57 | 113 to 115 | COc1ccc(S(=O)(=O)C2(CCCC#Cc3ccc(Cl)cc3)SC(=O)N(C)C2=O)cc1 (stereo not drawn)
58 | 134 to 136 | CCOC(=O)c1ncn(C2OC(COC(=O)c3ccccc3)C(OC(=O)c3ccccc3)C2OC(=O)c2ccccc2)c1C(=O)OCC (stereo not drawn)
59 | 109 to 110 | O=C(OCc1ccccc1)c1ccc(O)c(CO)c1
60 | 201 | O=C(NCc1ccc(Cl)c(Cl)c1)Nc1cccc2[nH]ccc12
61 | 155 to 156 | O=C(O)C(=O)c1c(Cl)cc(OCCOc2ccc3ccccc3c2)cc1Cl
62 | 235 to 237 | Cn1cc(S(N)(=O)=O)c(=O)c2ccc(Cl)cc21
63 | 126 | COCCOc1ccc(CCCNS(=O)(=O)c2ccccc2[N+](=O)[O-])c(Oc2ncc(C(F)(F)F)cc2Cl)c1
64 | 107 to 109 | O=C(C=P(c1ccccc1)(c1ccccc1)c1ccccc1)COc1ccccc1Cl
65 | 97 to 100 | CC(=O)N(Cc1ccc(C[C@@H](C(=O)O)n2cccc2)cc1)Cc1nc(-c2ccccc2)oc1C
66 | 149 to 150 | COc1ccc(C(=O)c2c(N)sc3c2CCN(Cc2ccccc2)C3)cc1OC
67 | 226 to 228 | CCCc1c(OCCCOc2ccc3c(=O)cc(-c4ccc(C(=O)O)cc4)oc3c2CCC)ccc(C(C)=O)c1O
68 | 114 to 115 | CC(=O)N=C(OC(C)=O)N1CCSC1c1ccccc1OCCN1CCN(c2cccc(F)c2)CC1 (stereo not drawn)
69 | 121 to 122 | CC(=O)c1c(-c2ccccc2Cl)nc2occn12
70 | 164 | CN1C(=O)N(c2cc(Cl)cc(Cl)c2)C(=O)[C@]12CN(Cc1ccccc1)C[C@H]2c1ccc(C#N)cc1 (relative stereo)
71 | 156 to 157 | Cn1nc(C(=O)Nc2ccc(OCC(C)(C)C)c(C#N)c2)cc1-c1ccccc1
72 | 214 to 215 | COC(=O)c1c(-c2ccccc2)nn2ccc3c(c12)C(CC#N)CC3 (stereo not drawn)
73 | 182 to 183 | CC(=Cc1ccc2ccccc2n1)C(=O)NO

Row | melting point [°C] | Structure (SMILES)
74 | 148 to 149 | O=C1OC(=O)c2c1cccc2-c1ccccc1
75 | 110 to 111 | Cn1cc(-c2cccc(C(F)(F)F)c2)c(=O)n1-c1cccc(C(F)(F)F)c1
76 | 91 to 92 | CS(=O)(=O)O[C@H]1C[C@@H](C(=O)OCc2ccccc2)N(S(C)(=O)=O)C1
77 | 183 to 184 | CC(C)(C)c1cc(CCc2ccccc2NC(=O)N(Cc2ccccc2)C2CCCCCC2)cc(C(C)(C)C)c1O
78 | 78 to 81 | COc1ccc(C2=NN(CCCOc3ccccc3)C(=O)[C@H]3CCCC[C@@H]23)cc1OC (relative stereo)
79 | 124 to 127 | Cc1ccc(S(=O)(=O)OCC2COc3ccc4nccnc4c3O2)cc1 (stereo not drawn)
80 | 90 to 92.5 | CCS(=O)(=O)Oc1ccccc1S(N)(=O)=O
81 | 110 | CCN(CCNC(=O)c1ccc2ccccc2c1)C1CCc2ncsc2C1 (stereo not drawn)
82 | 32 | CCOC(=O)CC(c1ccc(OC)cc1)N1C(=O)c2ccccc2C1=O (stereo not drawn)
83 | 216 to 217 | O=S(=O)(C(=CN=c1ccc(Br)cn1Cc1ccccc1)S(=O)(=O)c1ccccc1)c1ccccc1
84 | 180 to 181 | COc1ccc2c(c1)c(-c1ccccc1)nc(=S)n2CC1CC1
85 | 79 to 80 | O=C(OCc1snc(Cl)c1Cl)c1ccccc1
86 | 200 to 202 | Nc1ncnc2c1c(-c1ccc(Oc3ccccc3)cc1)nn2C1CCC2(CC1)OCCO2
87 | 237 to 239 | O=C(NC(Cc1ccc(OCc2ccccc2)cc1)C(=O)O)c1cn2cc(-c3ccc(Cl)cc3Cl)ccc2n1 (stereo not drawn)
88 | 247 to 250 | COc1cc2c(cc1/C=C/CCO)oc1cc(-c3ccccc3Cl)c3c(c12)C(=O)NC3=O
89 | 78 to 80 | CCc1cc(OCc2ccccc2)c2c(Cl)cccc2n1
90 | 215 to 216 | O=C(O)CCc1ccnc(-c2nc(=O)c3ccccc3s2)c1
91 | 76 to 78 | CC(=O)c1ccc(SCCCc2ccccc2)cc1
92 | 184 to 185 | O=C(O)c1ccc(OCc2ccccc2)c(OCc2ccccc2)c1
93 | 165 to 167 | COc1ccc2c(c1)c(N1CCN(C)CC1)nn2S(=O)(=O)c1ccccc1
94 | 55 | CN(CCSC(=O)Cc1ccccc1Nc1c(Cl)cccc1Cl)CC1(S)CCCCC1
95 | 194 | c1ccc2c(c1)C[C@H]1CSC(=Nc3cccc4ncccc34)N1C2
96 | 280 | NS(=O)(=O)c1ccc(-c2noc(-c3cnc4ccc(-c5ccc(C(F)(F)F)cc5)cn34)n2)s1
97 | 109 to 111 | Cc1cc(C)c(CP(=O)(c2ccccc2)c2ccccc2)c(-c2ccc(F)c(C)c2)c1
98 | 150 to 152 | COc1nc2ccc(Br)cc2c2c1Cc1ccccc1-2

Reference: a melting point compilation (Tetko et al.; mined from patent text by program, amines drawn as free bases though some values may be those of a salt)
